# Experimental data: ChEMBL document CHEMBL5257038, “Active Natural Product Scaffolds against Trypanosomatid Parasites: A Review” (J Nat Prod, 2018)
# Positions of bridges follow the written chain, without caps; N, C: chain ends. Non-standard residues stand in square brackets, D forms with d. Residues, ends and D or L forms follow the SMILES beside them. ξ: configuration not given here. ξK = NCCCCC(N)C(=O)O
# Legend:
# THP-1 = test: Cytotoxicity against human THP-1 cells; assay type: functional, cell-based
# [1] = system: Trypanosoma brucei rhodesiense; test: Antitrypanosomal activity against bloodstream form of Trypanosoma brucei rhodesiense assessed as parasite growth inhibition; assay type: functional, organism-based
# Trypanosoma cruzi [2] = test: Antitrypanosomal activity against epimastigote form of Trypanosoma cruzi assessed as reduction in parasite growth; assay type: functional, organism-based
# Trypanosoma cruzi [3] = test: Antitrypanosomal activity against intracellular Trypanosoma cruzi amastigote assessed as reduction in parasite growth; assay type: functional, organism-based
# Trypanosoma cruzi [4] = test: Antitrypanosomal activity against trypomastigote form of Trypanosoma cruzi assessed as reduction in parasite growth; assay type: functional, organism-based
# Leishmania donovani [5] = test: Antileishmanial activity against amastigote form of Leishmania donovani assessed as parasite growth inhibition; assay type: functional, organism-based
# [6] = Selectivity index, ratio of CC50 for cytotoxicity against rat L6 cells to IC50 for antitrypanosomal activity against bloodstream form of Trypanosoma brucei rhodesiense; assay type: toxicity, cell-based; settings: read-out: Ratio CC50/IC50
# Leishmania donovani [7] = test: Antileishmanial activity against Leishmania donovani promastigotes assessed as parasite growth inhibition; assay type: functional, organism-based
# Trypanosoma brucei = test: Antitrypanosomal activity against bloodstream form of Trypanosoma brucei assessed as parasite growth inhibition; assay type: functional, organism-based
# [8] = Selectivity index, ratio of IC50 for cytotoxicity against mouse peritoneal macrophage cells to IC50 for antileishmanial activity against Leishmania donovani promastigotes; assay type: toxicity, cell-based; settings: read-out: Ratio IC50
# [9] = Selectivity index, ratio of IC50 for cytotoxicity against mouse peritoneal macrophage cells to IC50 for antitrypanosomal activity against bloodstream form of Trypanosoma brucei; assay type: toxicity, cell-based; settings: read-out: Ratio IC50
# [10] = system: Trypanosoma brucei brucei; test: Antitrypanosomal activity against bloodstream form of Trypanosoma brucei brucei assessed as reduction in parasite growth; assay type: functional, organism-based
# Leishmania infantum [11] = test: Antileishmanial activity against amastigote stage of Leishmania infantum; assay type: functional, organism-based
# Leishmania donovani [12] = test: Antileishmanial activity against amastigote form of Leishmania donovani HU3 infected in Balb/c mouse assessed as parasite growth inhibition at 30 mg/kg, ip for 5 days relative to control; assay type: functional; settings: HU3, 120 h, time 5 day
# Leishmania donovani [13] = test: Antileishmanial activity against Leishmania donovani promastigotes infected in golden hamster assessed as reduction in parasite load in spleen at 14.0 mg/kg administered twice per week for 4 weeks relative to control; assay type: functional; parameters: scale not given: the % may be the effect or the level left
# Leishmania major = test: Antileishmanial activity against Leishmania major promastigotes assessed as parasite growth inhibition; assay type: functional, organism-based
# [14] = Selectivity index, ratio of IC50 for cytotoxicity against rat L6 cells to IC50 for antitrypanosomal activity against bloodstream form of Trypanosoma brucei rhodesiense; assay type: toxicity, cell-based; settings: read-out: Ratio IC50
# Trypanosoma cruzi [15] = test: Antitrypanosomal activity against Trypanosoma cruzi amastigote; assay type: functional, organism-based
# [16] = Selectivity index, ratio of IC50 for cytotoxicity against African green monkey Vero cells to IC50 for antitrypanosomal activity against Trypanosoma cruzi amastigote; assay type: toxicity, cell-based; settings: read-out: Ratio IC50
# [17] = Selectivity index, ratio of IC50 for cytotoxicity against rat L6 cells to IC50 for antileishmanial activity against amastigote form of Leishmania donovani; assay type: toxicity, cell-based; settings: read-out: Ratio IC50
# [18] = Selectivity index, ratio of IC50 for cytotoxicity against rat L6 cells to IC50 for antitrypanosomal activity against intracellular Trypanosoma cruzi amastigote; assay type: toxicity, cell-based; settings: read-out: Ratio IC50
# [19] = system: Trypanosoma brucei brucei; test: Antitrypanosomal activity against Trypanosoma brucei brucei; assay type: functional, organism-based
# [20] = Selectivity index, ratio of IC50 for cytotoxicity against human T98G cells to IC50 for antitrypanosomal activity against Trypanosoma brucei brucei; assay type: toxicity, cell-based; settings: read-out: Ratio IC50
# Leishmania donovani [21] = test: Antileishmanial activity against Leishmania donovani promastigotes infected in golden hamster assessed as reduction in parasite load in spleen at 3.5 mg/kg administered twice per week for 4 weeks relative to control; assay type: functional; parameters: scale not given: the % may be the effect or the level left
# Leishmania infantum [22] = test: Antileishmanial activity against promastigote stage of Leishmania infantum; assay type: functional, organism-based
compound,measurement,setting,value
N=C(N)c1ccc(OCCCCCOc2ccc(C(=N)N)cc2)cc1 [PENTAMIDINE],EC50,THP-1,15.8 µM
CC/C=C(C)/C=C/CCC[C@]1(OC)C[C@H](C)[C@H](CC(=O)OC)OO1 [MANADOPEROXIDE B],EC50,[1],0.0088 µM
C=C1C(=O)O[C@H]2C[C@@](C)(O)C3=CC[C@](C)(O)[C@@H]3C[C@H]12 [GUAIANOLIDE],EC50,Trypanosoma cruzi [2],18.1 µM
same,EC50,Trypanosoma cruzi [3],67 µM
same,EC50,Trypanosoma cruzi [4],5.7 µM
Nc1nc([C@H]2[C@H](CNC(=O)c3cc(Br)c[nH]3)[C@@H](CNC(=O)c3cc(Br)c[nH]3)[C@@H]2c2c[nH]c(N)n2)c[nH]1 [SCEPTRIN],EC50,[1],15.7 µM
same,EC50,Leishmania donovani [5],83 µM
same,EC50,Trypanosoma cruzi [3],96 µM
same,selectivity ratio,[6],> 10
"CC[C@H](C)[C@@H]1NC(=O)CNC(=O)[C@H](CCCNC(=N)N)NC(=O)[C@H](Cc2ccc(O)cc2)NC(=O)[C@@H]2CSSC[C@H](NC1=O)C(=O)N[C@@H](Cc1ccc(O)cc1)C(=O)N[C@@H](CCCNC(=N)N)C(=O)N[C@@H](CCCNC(=N)N)C(=O)N[C@H](C(=O)N[C@@H](CCCNC(=N)N)C(N)=O)CSSC[C@H](NC(=O)[C@H](Cc1c[nH]c3ccccc13)NC(=O)C(N)CCCCN)C(=O)N[C@@H](Cc1ccccc1)C(=O)N[C@@H](CCCNC(=N)N)C(=O)N[C@@H](C(C)C)C(=O)N2 (some centres not stated) (H-[ξK]WCFRVCYRGICYRRCR-NH2; disulfide 3-16, 7-12)",EC50,Trypanosoma cruzi [2],47.9 µM
same,EC50,Trypanosoma cruzi [4],9.3 µM
C[n+]1c2ccccc2cc2[n-]c3ccccc3c21 [CRYPTOLEPINE],EC50,Leishmania donovani [7],1.6 µM
same,EC50,Trypanosoma brucei,0.3 µM
same,selectivity ratio,[8],0.7
same,selectivity ratio,[9],29.3
CO/N=c1\[n-]cnc2c1n(C/C=C(\C)CCC=C(C)C)c[n+]2C,EC50,[10],0.5 µM
same,EC50,Trypanosoma cruzi [3],< 0.25 µM
same,EC50,Leishmania infantum [11],2 µM
O=c1c(O)c(-c2cc(O)c(O)c(OS(=O)(=O)O)c2)oc2cc(O)cc(O)c12,EC50,[10],21.4 µM
O=c1c(O)c(-c2ccc(O)c(O)c2)oc2cc(O)cc(O)c12 [QUERCETIN],EC50,[10],25.8 µM
same,EC50,Leishmania donovani [5],3.3 µM
same,inhibition in vivo at 30 mg/kg,Leishmania donovani [12],15%
same,Activity,Leishmania donovani [13],90%
C=C(C)C(=O)O[C@H]1CC2=C[C@@H](C/C(C)=C/[C@H]3OC(=O)C(=C)[C@H]13)OC2=O,EC50,[1],0.07 µM
same,EC50,Leishmania major,< 0.28 µM
COc1ccc(-c2oc3cc(OC)c(OC)c(O)c3c(=O)c2OC)cc1OC [ARTEMETIN],EC50,[1],12.1 µM
same,selectivity ratio,[14],9.8
COc1cc2c(c3oc4cccc(O)c4c(=O)c13)[C@@H]1C=CO[C@@H]1O2 [STERIGMATOCYSTIN],EC50,Trypanosoma cruzi [15],0.13 µM
same,selectivity ratio,[16],0.46
CC1CS(=O)(=O)CCN1/N=C/c1ccc([N+](=O)[O-])o1 (configuration not stated) [NIFURTIMOX],EC50,Trypanosoma cruzi [2],1.5 µM
same,EC50,Leishmania donovani [7],0.024 µM
same,EC50,Leishmania donovani [5],0.004 µM
O=C(Cn1ccnc1[N+](=O)[O-])NCc1ccccc1 [BENZNIDAZOLE],EC50,Trypanosoma cruzi [2],9.3 µM
Cn1c2c3cc(Br)ccc3nc-2cc2cc(Br)ccc21,EC50,Leishmania donovani [7],0.5 µM
same,EC50,Trypanosoma brucei,0.0029 µM
same,selectivity ratio,[8],18
same,selectivity ratio,[9],2080
CC(C)[C@@H]1NC(=O)[C@H](C)OC(=O)[C@@H](C(C)C)NC(=O)[C@@H](C(C)C)OC(=O)[C@H](C(C)C)NC(=O)[C@H](C)OC(=O)[C@@H](C(C)C)NC(=O)[C@@H](C(C)C)OC(=O)[C@H](C(C)C)NC(=O)[C@H](C)OC(=O)[C@@H](C(C)C)NC(=O)[C@@H](C(C)C)OC1=O [VALINOMYCIN],EC50,[10],0.0032 µM
same,EC50,Leishmania major,< 0.11 µM
O=c1c(O)c(-c2ccccc2)oc2ccccc12 [FLAVONOL],EC50,[1],2.2 µM
same,EC50,Leishmania donovani [5],3 µM
same,EC50,Trypanosoma cruzi [3],33 µM
same,selectivity ratio,[17],21
same,selectivity ratio,[14],29
same,selectivity ratio,[18],2
Cc1cc(O[C@@H]2O[C@@H](C)[C@H](O)[C@@H](O)[C@H]2O)c2c(c1)cc(O[C@@H]1O[C@@H](C)[C@H](O)[C@@H](O)C1O)c1c(=O)c3c(O)cccc3oc12 (some centres not stated),EC50,[10],15.5 µM
"O=c1cc(-c2ccccc2)oc2c(O)c(O)ccc12 [7,8-DIHYDROXYFLAVONE]",EC50,[1],0.27 µM
same,selectivity ratio,[14],116
O=c1c(O[C@@H]2O[C@H](CO)[C@@H](O)[C@H](O)[C@H]2O)c(-c2cc(O)c(O)c(O)c2)oc2cc(O)cc(O)c12,EC50,[10],13.1 µM
CCCCCCC1CCCC(C2CCC([C@H]3CC[C@H]([C@H](O)CCCCCCCCCCCCC4=C[C@H](C)OC4=O)O3)O2)O1 (some centres not stated) [CHAMUVARININ],EC50,[10],1.3 µM
COc1ccc2c(=O)cc(-c3ccccc3)oc2c1OC,EC50,[1],21.6 µM
same,selectivity ratio,[14],5
C[C@@H]1O[C@@H](Oc2cc(O)c3c(=O)c(O)c(-c4ccc(O)c(O)c4)oc3c2)[C@H](O)[C@H](O)[C@H]1O,EC50,[10],20.1 µM
CCCCCCCCCCCCCCCCOP(=O)([O-])OCC[N+](C)(C)C [MILTEFOSINE],EC50,Trypanosoma cruzi [2],0.92 µM
same,EC50,THP-1,4.67 µM
CC/C=C(C)/C=C/CCC[C@]1(OC)C[C@H](C)[C@H](CC(=O)O)OO1,EC50,[1],5.7 µM
same,selectivity ratio,[14],3.8
CC1=C\C=C\C[C@H](C)NC(=O)/C=C/C=C/C=C/[C@H](C)[C@@H](O)[C@H](O)[C@H](O)C[C@@H](O)/C=C\C=C\C(C)=C\1,EC50,[19],0.8 µM
same,selectivity ratio,[20],83
COc1cccc2oc3c(Cl)c(O)c([C@H]4CCC[C@@H](C)O4)c(O)c3c(=O)c12 [CHAETOXANTHONE C],EC50,[1],109 µM
same,EC50,Leishmania donovani [7],7.9 µM
same,EC50,Trypanosoma cruzi [3],3.8 µM
CC/C=C(C)\C=C\CCC[C@]1(OC)C[C@H](C)[C@H](CC(=O)OC)OO1,EC50,[1],0.032 µM
same,selectivity ratio,[14],> 350
C=C1CC[C@H]2C(C)(C)CCC[C@]2(C)[C@H]1CC/C(C)=C/Cn1c[n+](C)c2ncnc(N)c21,EC50,[10],1.8 µM
same,EC50,Trypanosoma cruzi [3],9 µM
same,EC50,Leishmania infantum [11],3 µM
NC[C@@H]1O[C@H](O[C@H]2[C@@H](O)[C@H](O[C@@H]3[C@@H](O)[C@H](N)C[C@H](N)[C@H]3O[C@H]3O[C@H](CO)[C@@H](O)[C@H](O)[C@H]3N)O[C@@H]2CO)[C@H](N)[C@@H](O)[C@@H]1O [PAROMOMYCIN],EC50,[1],22.7 µM
same,EC50,Leishmania donovani [7],0.005 µM
same,EC50,Leishmania donovani [5],0.007 µM
COc1cc(-c2oc3cc(O)cc(O)c3c(=O)c2O)ccc1O [ISORHAMNETIN],selectivity ratio,[17],10.7
same,selectivity ratio,[14],4.6
O=c1cc(-c2ccc(O)c(O)c2)oc2cc(O)cc(O)c12 [LUTEOLIN],EC50,[1],14.1 µM
same,EC50,Leishmania donovani [5],2.8 µM
same,selectivity ratio,[17],12
same,selectivity ratio,[14],3
same,Activity,Leishmania donovani [21],80%
C/C=C(\C)C(=O)O[C@@H]1CC([C@@H](O)C2=CC3OC(=O)C4=C3[C@H]2[C@H]2OC(=O)[C@H](C)[C@@H]2[C@H](OC(=O)/C(C)=C/C)C4)=C2C(=O)C=C(C)[C@@H]2[C@H]2OC(=O)[C@H](C)[C@@H]21 (some centres not stated),EC50,[1],4.5 µM
same,EC50,Leishmania donovani [5],10.2 µM
same,EC50,Trypanosoma cruzi [3],30.3 µM
CC1=C\C=C\C[C@H](C)NC(=O)/C=C/C=C/C=C/[C@H](C)[C@@H](O)[C@H](O)[C@H](O)C[C@@H](O)\C=C\C=C\C(C)=C\1,EC50,[19],6.1 µM
same,selectivity ratio,[20],11
CO[C@@]1(CCCC2(O)C=C(C)C(C)O2)C[C@H](C)[C@H](CC(=O)O)OO1 (some centres not stated),EC50,[1],0.17 µM
same,EC50,[10],0.049 µM
C[C@@H]1[C@H](O)[C@@H](C)/C=C/C=C/C=C/C=C/C=C/C=C/C=C/[C@H](O[C@@H]2O[C@H](C)[C@@H](O)[C@H](N)[C@@H]2O)C[C@@H]2O[C@](O)(C[C@@H](O)C[C@@H](O)[C@H](O)CC[C@@H](O)C[C@@H](O)CC(=O)O[C@H]1C)C[C@H](O)[C@H]2C(=O)O [AMPHOTERICIN B],EC50,Leishmania infantum [22],0.04 µM
same,EC50,THP-1,2 µM
C/C=C(\C)C(=O)O[C@@H]1CC(C(=O)O)=C2C(=O)C=C(C)[C@@H]2[C@H]2OC(=O)[C@H](C)[C@@H]21,EC50,[1],20.7 µM
